Test results: ChEMBL document CHEMBL6096679, “Recent Progress in the Development of Glucose Transporter (GLUT) Inhibitors” (J Med Chem, 2025)
Values belong to the compound of their own block, whether it stands above or below them.

Key:
3T3-L1 = test: Induction of glucose uptake in mouse 3T3-L1 cells assessed as increase in glucose uptake; type: functional, cell-based
[1] = target: T1, Solute carrier family 2, facilitated glucose transporter member 1 (Homo sapiens, UniProt P11166); test: Inhibition of GLUT1 in human wild-type DLD-1 cells assessed as reduction in ATP level measured after 90 mins by Celltiter-glo luminescent assay; type: cell-based
T1 sequence (P11166 whole entry): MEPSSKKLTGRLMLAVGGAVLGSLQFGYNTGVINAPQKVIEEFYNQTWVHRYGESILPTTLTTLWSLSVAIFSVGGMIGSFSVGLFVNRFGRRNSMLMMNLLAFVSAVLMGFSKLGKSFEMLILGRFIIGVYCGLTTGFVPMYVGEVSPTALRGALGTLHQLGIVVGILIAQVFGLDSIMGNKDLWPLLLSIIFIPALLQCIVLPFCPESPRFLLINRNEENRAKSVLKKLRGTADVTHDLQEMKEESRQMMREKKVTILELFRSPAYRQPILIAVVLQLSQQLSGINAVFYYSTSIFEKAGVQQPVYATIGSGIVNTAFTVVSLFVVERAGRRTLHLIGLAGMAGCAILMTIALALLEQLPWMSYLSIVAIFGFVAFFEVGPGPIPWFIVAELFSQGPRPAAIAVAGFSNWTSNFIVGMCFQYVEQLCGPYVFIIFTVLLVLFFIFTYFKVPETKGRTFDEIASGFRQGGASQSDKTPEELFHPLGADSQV

[2] = Induction of GLUT1 translocation in mouse 3T3-L1 cells by Western blot analysis; type: cell-based
A549 = test: Inhibition of glycolysis in human A549 cells assessed as decrease in HK2 activity incubated for 48 hrs by spectrophotometric assay; type: functional, cell-based; settings: A549, 48 h
[3] = target: T2, Solute carrier family 2, facilitated glucose transporter member 9 (Homo sapiens, UniProt Q9NRM0); test: Inhibition of GLUT9 (unknown origin) overexpressed in uric acid-induced HEK293 cells by patch clamp analysis; type: cell-based
T2 sequence (Q9NRM0 whole entry): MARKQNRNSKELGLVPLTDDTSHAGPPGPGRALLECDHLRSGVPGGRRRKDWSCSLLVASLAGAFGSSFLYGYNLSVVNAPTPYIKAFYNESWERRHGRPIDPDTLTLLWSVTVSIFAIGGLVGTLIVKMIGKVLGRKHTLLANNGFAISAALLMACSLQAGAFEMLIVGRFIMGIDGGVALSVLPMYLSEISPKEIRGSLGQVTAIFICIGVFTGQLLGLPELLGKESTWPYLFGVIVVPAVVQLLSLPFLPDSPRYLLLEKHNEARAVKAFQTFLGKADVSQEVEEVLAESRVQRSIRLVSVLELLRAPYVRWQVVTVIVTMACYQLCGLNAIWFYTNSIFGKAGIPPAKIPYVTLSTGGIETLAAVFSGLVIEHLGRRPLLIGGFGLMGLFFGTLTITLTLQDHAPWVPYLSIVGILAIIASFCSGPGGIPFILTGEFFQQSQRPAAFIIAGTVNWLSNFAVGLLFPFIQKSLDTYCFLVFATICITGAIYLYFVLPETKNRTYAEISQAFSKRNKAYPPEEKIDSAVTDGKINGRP

[4] = Induction of GLUT4 translocation in mouse 3T3-L1 cells Cytosol by Western blot analysis; type: subcellular

SMILES: O=C(Oc1cccc(OC(=O)c2cccc(O)c2)c1OC(=O)c1cccc(O)c1)c1cccc(O)c1
- IC50 (3T3-L1): 0.3 µM

SMILES: O=C(Oc1cccc(OC(=O)c2cc(O)c(O)c(O)c2)c1OC(=O)c1cc(O)c(O)c(O)c1)c1cc(O)c(O)c(O)c1
- IC50 (3T3-L1): 5 µM

- IC50 [1]: 11.4 µM
SMILES: CC(CN1C(=O)S/C(=C\c2ccc(O)c(C(F)(F)F)c2)C1=O)(CC(F)(F)F)CC(F)(F)F

- IC50 [1]: 7.07 µM
SMILES: CN(Cc1cccc2ncccc12)C(=O)c1cnn(-c2ncc3c(n2)-c2ccccc2CC3)c1C1CC1

SMILES: O=C(Oc1cccc(F)c1OC(=O)c1cccc(O)c1)c1cccc(O)c1
- IC50 (3T3-L1): 0.5 µM

- IC50 [1]: 1 µM
SMILES: CC(C)(C)c1ccc(S(=O)(=O)NCc2ccc(C(=O)Nc3cccnc3)cc2)cc1

- IC50 [2]: 0.09 nM
SMILES: COc1ccccc1N1CCN(c2ncnc3c2cnn3-c2cc(F)cc(F)c2)CC1

- IC50 [2]: 0.2 nM
SMILES: C[C@H](NC(=O)[C@H](Cc1ccc(F)cc1)NC(=O)Cc1cccc(O)c1)c1ccccc1

- IC50 [1]: 10.8 µM
SMILES: COc1ccc(-c2ccc(O)c(/C=N/O)c2)cc1F

SMILES: O=C1CC(c2ccc(-c3cc[nH]n3)s2)c2cc(N3CCNC3=O)ccc2N1 (stereo not drawn)
- IC50 (3T3-L1): 33 µM

- IC50 (A549): < 0.1 µM
SMILES: O=C(COc1cccc(-c2nc3c(c(Nc4ccc(-c5cn[nH]c5)cc4)n2)COC3)c1)NC1CCCC1

- IC50 (A549): < 0.1 µM
SMILES: O=C(COc1cccc(-c2nc3c(c(Nc4ccc(-c5cn[nH]c5)cc4)n2)COC3)c1)NC1CCC1

- IC50 (A549): < 0.1 µM
SMILES: CC(C)NC(=O)COc1cccc(-c2nc(Nc3ccc(-c4cn[nH]c4)cc3)c3sccc3n2)c1

- IC50 [1]: 11.1 µM
SMILES: Cc1nn(C(=O)c2ccncc2)c(C)c1/N=N/c1ccc(Cl)cc1

- IC50 (A549): < 0.1 µM
SMILES: CC(C)NC(=O)COc1cccc(-c2nc3c(c(Nc4ccc(-c5cn[nH]c5)cc4)n2)COC3)c1

- IC50 [2]: 115 nM
SMILES: CCOc1ccc2nc(-c3cccc(OCC(=O)NC(C)C)c3)nc(Nc3ccc(-c4cn[nH]c4)cc3)c2c1

- IC50 [2]: 2600 nM
SMILES: Cc1ccc(CNc2ccc(Cl)cc2NCc2ccc(C)c(O)c2)cc1O

- IC50 [2]: 14700 nM
SMILES: O=C(CN1C(=O)S/C(=C/c2ccco2)C1=O)Nc1ccc(Cl)c(Cl)c1

- IC50 [2]: 11400 nM
SMILES: O=C(CN1C(=O)S/C(=C/c2ccco2)C1=O)Nc1nc2ccccc2s1

- IC50 [1]: 1.67 µM
SMILES: COc1ccc(-c2ccc(/C(C)=N/O)c(O)c2Cl)cc1

SMILES: O=C(Nc1ccc(Cl)c(C(F)(F)F)c1)c1ccc(Cl)cc1
- IC50 (3T3-L1): 61 µM

- IC50 (A549): < 0.1 µM
SMILES: O=C(COc1cccc(-c2nc(Nc3ccc(-c4cn[nH]c4)cc3)c3sccc3n2)c1)NC1CCCC1

SMILES: OC[C@H]1O[C@](O)(CO)[C@@H](O)[C@@H]1O
- IC50 (3T3-L1): 3.9 µM

- IC50 [2]: 0.14 nM
SMILES: COc1ccc(CC(=O)N[C@@H](Cc2cccc(Br)c2)C(=O)N[C@@H](C)c2ccccc2)cc1

- IC50 [1]: 6.08 µM
SMILES: COCc1c(C(=O)N2CCN(c3ccccc3)CC2)cnn1-c1ncc2c(n1)-c1ccccc1CCC2

- IC50 [1]: 6.32 µM
SMILES: O=C(COc1ccc(-c2csc3ccccc23)cc1CN1CCN(c2ccccn2)CC1)NCc1nccs1

- IC50 (A549): < 0.1 µM
SMILES: CCCCC1C(=O)NC2Cc3cccc4ccc(cc34)N1C(=O)COc1cccc(c1)[C@@H](CCc1ccc(OC)c(OC)c1)OC(=O)C1CCCCN1C(=O)C(=O)C(C)(C)COC(=O)/C=C\CCN(C)C(=O)CNC(=O)C(COC(C)(C)C)N(C)C2=O (stereo partly drawn)

- IC50 [1]: 10.6 µM
SMILES: Cc1cccc(NC(=O)CN2C(=O)N/C(=C/c3cc(C)n(-c4ccc(O)cc4)c3C)C2=O)c1

SMILES: CC(=O)CC(=O)Nc1ccc(Cl)c(C(F)(F)F)c1
- IC50 (3T3-L1): 68 µM

SMILES: CCC(C)[C@H]1C(=O)NCC(=O)N(C)CC/C=C/C(=O)OCC(C)(C)C(=O)C(=O)N2CCCC[C@H]2C(=O)O[C@H](CCc2ccc(OC)c(OC)c2)c2cccc(c2)NC(=O)CCC(=O)N(C)[C@@H](CC(C)C)C(=O)N[C@H](Cc2ccccc2)C(=O)N1C (stereo partly drawn)
- IC50 [2]: 78 nM

- IC50 [1]: 7 µM
SMILES: C/C(=N\O)c1ccc(-c2ccc(O)c(C)c2)c(Cl)c1O

- IC50 [1]: 1.89 µM
SMILES: COc1ccc(-n2cc(-c3ccc(Cl)cc3)nc2NC(=O)CN(Cc2ccccc2)C(=O)c2ccc(C)cc2)cc1OC

- IC50 [3]: 11.4 µM
- IC50 [1]: 0.0596 µM
SMILES: CCOC(=O)Cn1c2c(c3ccccc31)C[C@@H]1C[C@@H]2[C@H](OC)CN1C(=O)c1cccnc1SC

SMILES: FC(F)(F)c1cc(NC(=S)NCc2ccccc2)ccc1Cl
- IC50 (3T3-L1): 61 µM

- IC50 [2]: 5400 nM
SMILES: O=C(CN1C(=O)S/C(=C/c2ccc(Cl)cc2)C1=O)Nc1ccc(Cl)cc1C(F)(F)F

- IC50 [1]: 2.87 µM
SMILES: COc1ccccc1N1CCN(C(=O)c2cnn(-c3nccc(-c4cccs4)n3)c2C2CC2)CC1

- IC50 [3]: 0.32 µM
- IC50 [1]: 0.162 µM
SMILES: CCOc1cccc2c1O[C@]1(C)C[C@@H]2NC(=O)N1c1cccc(C(=O)NCCc2ccc(C)cc2)c1

- IC50 [1]: 0.61 µM
SMILES: COc1ccc(C2=CC(c3ccc(F)cc3)N(C(=O)CSc3c(C)[nH]c4ccccc34)N2)cc1 (stereo not drawn)

- IC50 [4]: 5.8 µM
SMILES: CS(=O)(=O)c1ccc(Nc2ccc3c(c2)OCO3)c([N+](=O)[O-])c1

- IC50 [4]: 3.88 µM
SMILES: Cc1cc(NC(=O)CCC2Cc3ccccc3NC2=O)nc(-c2ccccc2)n1 (stereo not drawn)

- IC50 [1]: 38 µM
SMILES: O=C(Oc1ccc2ccc(=O)oc2c1OC(=O)c1ccc(O)cc1)c1ccc(O)cc1

- IC50 [4]: 6.94 µM
SMILES: Cc1ccccc1CN(Cc1nnc(C(C)(C)C)o1)c1ccc2nc(O)[nH]c2c1

- IC50 [2]: 6.2 nM
SMILES: C[C@@]1(C(=O)NCc2cccnc2)Cn2nc(-c3ccccc3)cc2C(=O)N1Cc1ccc(N2CCOCC2)cc1

- IC50 [2]: 26600 nM
SMILES: O=C(CN1C(=O)S/C(=C/c2ccc(F)cc2)C1=O)Nc1cccc(C(F)(F)F)c1

- IC50 [1]: 0.29 µM
SMILES: C/C(=N\O)c1ccc(-c2ccc(O)c(Cl)c2)c(Cl)c1O

- IC50 [2]: 12600 nM
SMILES: O=C(CN1C(=O)S/C(=C/c2ccccc2)C1=O)Nc1nc2c(Cl)cccc2s1

SMILES: O=C1CC(c2cccc3[nH]ccc23)c2ccc(NC(=O)c3cccnc3)cc2N1 (stereo not drawn)
- IC50 (3T3-L1): 28 µM

SMILES: COc1ccc(CN(CC[C@@H](c2ccccc2)[C@H]2CCOC(C)(C)C2)C(=O)c2ccco2)cc1OC
- IC50 (3T3-L1): 0.11 µM

- IC50 [4]: 7.01 µM
SMILES: CC(=O)Nc1ccc(S(=O)(=O)Nc2ccc(Nc3cc(N(C)C)nc(C)n3)cc2)cc1

- IC50 [3]: 2.63 µM
SMILES: O=c1cc(-c2ccc(O)cc2)oc2cc(O)cc(O)c12 [APIGENIN]

- IC50 [3]: 19 µM
SMILES: COc1cc(/C=C/C(=O)CC(=O)/C=C/c2ccc(O)c(OC)c2)ccc1O [CURCUMIN]

SMILES: C=C1[C@@H](C)[C@H]2[C@H](Cc3ccccc3)NC(=O)[C@]23OC(=O)/C=C/[C@H](O)CCC[C@@H](C)C/C=C/[C@H]3[C@@H]1O [CYTOCHALASIN B]
- IC50 [3]: 0.44 µM

SMILES: OC[C@H]1OC(O)[C@H](O)[C@@H](O)[C@@H]1O (stereo partly drawn) [DEXTROSE]
- IC50 (3T3-L1): 1.4 µM

SMILES: CC/C=C\C/C=C\C/C=C\C/C=C\C/C=C\C/C=C\CCC(=O)O [DOCONEXENT]
- IC50 (3T3-L1): 0.8 µM

SMILES: N[C@H]1C(O)O[C@H](CO)[C@@H](O)[C@@H]1O (stereo partly drawn) [GLUCOSAMINE]
- IC50 (3T3-L1): 0.9 µM

- IC50 [3]: 49 µM
SMILES: O=C(CCc1ccc(O)cc1)c1c(O)cc(O)cc1O [PHLORETIN]
